Measurements as given in US7700577B2, “Carbohydrate based anti-bacterials” (Alchemia Limited, priority 2002, dated 2010).

Assays:
[1] = tested on: Streptococcus pyrogenes (ATCC8668); assay: MIC testing, additional organisms: Streptococcus pyrogenes; format: cell-based; details: broth supplemented with 2% laked horse blood
Description: (§1) The broth microdilution format of the National Committee for Clinical Laboratory Standards (NCCLS) approved standard for susceptibility tests as outlined in M7-A4 “methods for dillution Antimicrobial susceptibility tests for bacteria that grow aerobically; approved standard—fifth edition”, January 2000 was utilized for minimum inhibitory concentration testing in Mueller-Hinton broth. The broth for Streptococcus pyogenes testing was supplemented with 2% laked horse blood. A positive result in initial testing was determined by complete inhibition of macroscopic bacterial growth at a concentration of 128 micrograms per mL after incubation for 16 to 24 hours at 37 degrees C. In the case of Micrococcus luteus, incubation was at 30 degrees C.
(§2) Bacterial Types Are: • SA24 S. aureus after 24 hours exposure • SA48 S. aureus after 48 hours exposure • EC24 E. coli after 24 hours exposure
(§3) The following compounds were tested against additional organisims with the following results. • 1. Micrococcus luteus (ATCC272) • 2. Staphylococcus aureus (ATCC29213) • 3. Staphylococcus aureus (ATCC43300) MRSA • 4. Enterococcus faecalis (ATCC29212) • 5. Enterococcus faecalis (ATCCS 1299) Vancomycin resistant • 6. Streptococcus pyrogenes (ATCC8668)

[2] = tested on: Enterococcus faecalis (ATCC29212); assay: MIC testing, additional organisms: Enterococcus faecalis ATCC29212; format: cell-based
Description: as §1, §2, §3

[3] = tested on: Enterococcus faecalis (ATCCS 1299) Vancomycin resistant; assay: MIC testing, additional organisms: Enterococcus faecalis vancomycin resistant; format: cell-based
Description: as §1, §2, §3

[4] = tested on: Staphylococcus aureus (ATCC43300) MRSA; assay: MIC testing, additional organisms: Staphylococcus aureus MRSA; format: cell-based
Description: as §1, §2, §3

E. coli = assay: MIC testing, broth microdilution (NCCLS), E. coli; format: cell-based; details: E. coli after 24 hours exposure
Description: The broth microdilution format of the National Committee for Clinical Laboratory Standards (NCCLS) approved standard for susceptibility tests as outlined in M7-A4 “methods for dillution Antimicrobial susceptibility tests for bacteria that grow aerobically; approved standard—fifth edition”, January 2000 was utilized for minimum inhibitory concentration testing in Mueller-Hinton broth. The broth for Streptococcus pyogenes testing was supplemented with 2% laked horse blood. A positive result in initial testing was determined by complete inhibition of macroscopic bacterial growth at a concentration of 128 micrograms per mL after incubation for 16 to 24 hours at 37 degrees C. In the case of Micrococcus luteus, incubation was at 30 degrees C. […] Bacterial Types Are: • SA24 S. aureus after 24 hours exposure • SA48 S. aureus after 48 hours exposure • EC24 E. coli after 24 hours exposure

S. aureus = assay: MIC testing, broth microdilution (NCCLS), S. aureus; format: cell-based, Staphylococcus aureus; details: for SA24 (MIC): S. aureus after 24 hours exposure
[5] = tested on: Staphylococcus aureus (ATCC29213); assay: MIC testing, additional organisms: Staphylococcus aureus ATCC29213; format: cell-based
Description: as §1, §2, §3

[6] = tested on: Micrococcus luteus (ATCC272); assay: MIC testing, additional organisms: Micrococcus luteus; format: cell-based; details: incubation at 30 degrees C
Description: as §1, §2, §3

Structure (SMILES) | MIC, organism 6 [1] | MIC, organism 4 [2] | MIC, organism 5 [3] | MIC, organism 3 [4] | EC24 (MIC) (E. coli) | SA24 (MIC) (S. aureus) | SA48 (MIC) (S. aureus; S. aureus after 48 hours exposure) | MIC, organism 2 [5] | MIC, organism 1 [6]
CCCCCCCCCCC(=O)NC1C(CO)OCC(NC(=O)Nc2cccc(C(F)(F)F)c2)C1OC1OC(CO)C(O)C(O)C1NC(=O)Nc1cccc(C(F)(F)F)c1 (stereo not drawn) [compound 77] | + (+ indicates an MIC value of less than 128 micrograms per mL) | + (+ indicates an MIC value of less than 128 micrograms per mL) | + (+ indicates an MIC value of less than 128 micrograms per mL) | + (+ indicates an MIC value of less than 128 micrograms per mL) | − (− indicates an MIC of greater then 128 micrograms per mL) | + (+ indicates an MIC value of less than 128 micrograms per mL) | + (+ indicates an MIC value of less than 128 micrograms per mL) | + (+ indicates an MIC value of less than 128 micrograms per mL) | + (+ indicates an MIC value of less than 128 micrograms per mL)
O=C(Nc1cccc(C(F)(F)F)c1)NC1COC(CO)C(NC(=O)c2ccc(Oc3ccccc3)cc2)C1OC1OC(CO)C(O)C(O)C1NC(=O)Nc1cccc(C(F)(F)F)c1 (stereo not drawn) [compound 73] | + (+ indicates an MIC value of less than 128 micrograms per mL) | + (+ indicates an MIC value of less than 128 micrograms per mL) | + (+ indicates an MIC value of less than 128 micrograms per mL) | + (+ indicates an MIC value of less than 128 micrograms per mL) | – | + (+ indicates an MIC value of less than 128 micrograms per mL) | – | + (+ indicates an MIC value of less than 128 micrograms per mL) | + (+ indicates an MIC value of less than 128 micrograms per mL)
CCCCCCCCCCCCC(=O)NC1C(CO)OCC(NC(=O)Nc2cccc(C(F)(F)F)c2)C1OC1OC(CO)C(O)C(O)C1NC(=O)Nc1cccc(C(F)(F)F)c1 (stereo not drawn) [compound 76] | + (+ indicates an MIC value of less than 128 micrograms per mL) | + (+ indicates an MIC value of less than 128 micrograms per mL) | + (+ indicates an MIC value of less than 128 micrograms per mL) | + (+ indicates an MIC value of less than 128 micrograms per mL) | – | + (+ indicates an MIC value of less than 128 micrograms per mL) | – | + (+ indicates an MIC value of less than 128 micrograms per mL) | + (+ indicates an MIC value of less than 128 micrograms per mL)
CCCCCC(=O)NC1C(CO)OCC(NC(=O)Nc2cccc(C(F)(F)F)c2)C1OC1OC(CO)C(O)C(O)C1NC(=O)Nc1cccc(C(F)(F)F)c1 (stereo not drawn) [compound 70] | + (+ indicates an MIC value of less than 128 micrograms per mL) | + (+ indicates an MIC value of less than 128 micrograms per mL) | − (− indicates an MIC of greater then 128 micrograms per mL) | − (− indicates an MIC of greater then 128 micrograms per mL) | – | − (− indicates an MIC of greater then 128 micrograms per mL) | – | − (− indicates an MIC of greater then 128 micrograms per mL) | + (+ indicates an MIC value of less than 128 micrograms per mL)
